Experimental data reported in ChEMBL document CHEMBL4507295 (2021).

Tests used:
Details in all cases: Compound concentration 1000.0 nM
[1] = molecular target: AP2-associated protein kinase 1 (Homo sapiens) (UniProt Q2M2I8)
[2] = molecular target: Activin receptor type-1B (Homo sapiens) (UniProt P36896)
[3] = molecular target: RAC-gamma serine/threonine-protein kinase (Homo sapiens) (UniProt Q9Y243)
[4] = molecular target: Serine/threonine-protein kinase B-raf (Homo sapiens) (UniProt P15056)
[5] = molecular target: Mitotic checkpoint serine/threonine-protein kinase BUB1 (Homo sapiens) (UniProt O43683)
[6] = molecular target: Calcium/calmodulin-dependent protein kinase kinase 2 (Homo sapiens) (UniProt Q96RR4)
[7] = molecular target: Cyclin-dependent kinase 7 (Homo sapiens) (UniProt P50613)
[8] = molecular target: Dual specificity protein kinase CLK2 (Homo sapiens) (UniProt P49760)
Dual specificity protein kinase CLK2 (Homo sapiens), sequence (P49760 whole entry, looked up, canonical isoform): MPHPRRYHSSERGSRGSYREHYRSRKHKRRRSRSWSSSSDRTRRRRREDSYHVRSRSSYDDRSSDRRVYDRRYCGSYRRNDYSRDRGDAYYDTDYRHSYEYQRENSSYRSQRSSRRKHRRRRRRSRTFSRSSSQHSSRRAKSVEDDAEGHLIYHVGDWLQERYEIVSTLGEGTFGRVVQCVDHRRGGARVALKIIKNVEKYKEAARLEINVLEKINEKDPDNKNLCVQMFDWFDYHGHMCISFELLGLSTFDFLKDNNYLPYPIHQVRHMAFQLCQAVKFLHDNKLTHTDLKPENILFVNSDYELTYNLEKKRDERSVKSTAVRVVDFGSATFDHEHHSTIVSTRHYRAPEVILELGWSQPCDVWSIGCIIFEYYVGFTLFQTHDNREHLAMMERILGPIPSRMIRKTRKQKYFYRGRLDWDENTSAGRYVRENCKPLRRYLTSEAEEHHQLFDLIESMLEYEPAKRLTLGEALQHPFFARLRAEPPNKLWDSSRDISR

[9] = molecular target: Casein kinase I isoform gamma-2 (Homo sapiens) (UniProt P78368)
[10] = molecular target: Epithelial discoidin domain-containing receptor 1 (Homo sapiens) (UniProt Q08345)
[11] = molecular target: Serine/threonine-protein kinase MRCK gamma (Homo sapiens) (UniProt Q6DT37)
[12] = system: Epidermal growth factor receptor (Homo sapiens), P00533 [G719C]
[13] = molecular target: Ephrin type-A receptor 8 (Homo sapiens) (UniProt P29322)
[14] = molecular target: Mitogen-activated protein kinase 7 (Homo sapiens) (UniProt Q13164)
[15] = molecular target: Mitogen-activated protein kinase 15 (Homo sapiens) (UniProt Q8TD08)
[16] = molecular target: Receptor-type tyrosine-protein kinase FLT3 (Homo sapiens) (UniProt P36888)
[17] = system: Receptor-type tyrosine-protein kinase FLT3 (Homo sapiens), P36888 [N841I]
[18] = molecular target: Vascular endothelial growth factor receptor 3 (Homo sapiens) (UniProt P35916)
[19] = system: eIF-2-alpha kinase GCN2 (Homo sapiens), Q9P2K8 [S808G]
[20] = molecular target: Tyrosine-protein kinase JAK1 (Homo sapiens) (UniProt P23458)
[21] = molecular target: Mast/stem cell growth factor receptor Kit (Homo sapiens) (UniProt P10721)
Mast/stem cell growth factor receptor Kit (Homo sapiens), sequence (P10721 whole entry): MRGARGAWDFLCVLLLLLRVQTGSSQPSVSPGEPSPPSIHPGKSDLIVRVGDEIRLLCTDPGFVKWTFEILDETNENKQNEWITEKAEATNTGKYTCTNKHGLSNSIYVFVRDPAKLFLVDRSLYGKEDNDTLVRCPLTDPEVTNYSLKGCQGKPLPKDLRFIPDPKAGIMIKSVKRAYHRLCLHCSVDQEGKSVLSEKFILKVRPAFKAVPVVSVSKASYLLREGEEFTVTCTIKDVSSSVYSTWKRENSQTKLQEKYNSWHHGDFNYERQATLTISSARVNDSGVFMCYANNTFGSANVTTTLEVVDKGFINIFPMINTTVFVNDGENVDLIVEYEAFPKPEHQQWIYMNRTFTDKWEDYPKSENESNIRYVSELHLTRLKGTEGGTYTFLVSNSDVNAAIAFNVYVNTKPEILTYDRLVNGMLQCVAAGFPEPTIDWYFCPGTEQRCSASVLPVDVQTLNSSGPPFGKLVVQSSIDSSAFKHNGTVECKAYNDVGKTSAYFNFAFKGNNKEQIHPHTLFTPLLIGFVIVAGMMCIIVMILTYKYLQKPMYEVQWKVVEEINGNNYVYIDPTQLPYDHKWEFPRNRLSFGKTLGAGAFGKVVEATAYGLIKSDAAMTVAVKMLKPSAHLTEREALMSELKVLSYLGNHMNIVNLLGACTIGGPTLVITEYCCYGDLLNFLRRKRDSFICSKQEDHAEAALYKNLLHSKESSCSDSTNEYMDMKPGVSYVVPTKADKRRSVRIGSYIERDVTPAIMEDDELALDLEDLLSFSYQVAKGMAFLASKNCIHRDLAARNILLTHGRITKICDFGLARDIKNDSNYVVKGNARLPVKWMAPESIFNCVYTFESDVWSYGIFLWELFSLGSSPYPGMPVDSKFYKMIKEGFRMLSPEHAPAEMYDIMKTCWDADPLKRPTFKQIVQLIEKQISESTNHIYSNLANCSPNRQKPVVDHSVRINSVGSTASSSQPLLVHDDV

[22] = system: Mast/stem cell growth factor receptor Kit (Homo sapiens), P10721 [L576P]
Mast/stem cell growth factor receptor Kit (Homo sapiens), P10721 [L576P], sequence (P10721 whole entry L576P): as the sequence (P10721 whole entry) above, with L576P counted along it

[23] = system: Mast/stem cell growth factor receptor Kit (Homo sapiens), P10721 [V559D,V654A]
Mast/stem cell growth factor receptor Kit (Homo sapiens), P10721 [V559D,V654A], sequence (P10721 whole entry V559D/V654A): as the sequence (P10721 whole entry) above, with V559D, V654A counted along it

[24] = molecular target: MAP/microtubule affinity-regulating kinase 4 (Homo sapiens) (UniProt Q96L34)
[25] = molecular target: Dual specificity mitogen-activated protein kinase kinase 4 (Homo sapiens) (UniProt P45985)
[26] = molecular target: Myosin light chain kinase family member 4 (Homo sapiens) (UniProt Q86YV6)
[27] = molecular target: Myosin-IIIa (Homo sapiens) (UniProt Q8NEV4)
[28] = molecular target: Serine/threonine-protein kinase 38-like (Homo sapiens) (UniProt Q9Y2H1)
[29] = molecular target: Serine/threonine-protein kinase Nek11 (Homo sapiens) (UniProt Q8NG66)
[30] = molecular target: Phosphorylase b kinase gamma catalytic chain, skeletal muscle/heart isoform (Homo sapiens) (UniProt Q16816)
[31] = molecular target: Serine/threonine-protein kinase pim-2 (Homo sapiens) (UniProt Q9P1W9)
[32] = molecular target: Serine/threonine-protein kinase PLK4 (Homo sapiens) (UniProt O00444)
[33] = molecular target: Protein kinase C eta type (Homo sapiens) (UniProt P24723)
Protein kinase C eta type (Homo sapiens), sequence (P24723 whole entry): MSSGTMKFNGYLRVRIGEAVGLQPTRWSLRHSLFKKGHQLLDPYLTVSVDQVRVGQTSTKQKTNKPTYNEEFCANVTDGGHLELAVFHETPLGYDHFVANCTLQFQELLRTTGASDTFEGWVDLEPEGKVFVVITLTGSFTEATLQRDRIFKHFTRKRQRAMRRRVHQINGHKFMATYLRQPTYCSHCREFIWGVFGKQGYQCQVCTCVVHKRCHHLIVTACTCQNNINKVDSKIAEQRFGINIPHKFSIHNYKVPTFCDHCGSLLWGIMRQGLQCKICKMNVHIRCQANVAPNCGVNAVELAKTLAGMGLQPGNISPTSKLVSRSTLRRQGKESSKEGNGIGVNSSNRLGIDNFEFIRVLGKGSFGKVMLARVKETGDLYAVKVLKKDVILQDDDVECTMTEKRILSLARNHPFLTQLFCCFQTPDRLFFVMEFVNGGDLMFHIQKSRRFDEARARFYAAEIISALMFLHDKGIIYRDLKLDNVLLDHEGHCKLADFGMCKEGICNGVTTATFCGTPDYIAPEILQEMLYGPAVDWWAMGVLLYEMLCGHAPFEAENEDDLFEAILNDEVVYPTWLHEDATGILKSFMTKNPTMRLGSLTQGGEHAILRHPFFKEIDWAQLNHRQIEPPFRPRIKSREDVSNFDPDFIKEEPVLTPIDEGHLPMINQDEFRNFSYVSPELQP

[34] = molecular target: NUAK family SNF1-like kinase 2 (Homo sapiens) (UniProt Q9H093)
[35] = molecular target: Serine/threonine-protein kinase 36 (Homo sapiens) (UniProt Q9NRP7)
[36] = molecular target: Tyrosine-protein kinase SYK (Homo sapiens) (UniProt P43405)
[37] = molecular target: Mitogen-activated protein kinase kinase kinase 7 (Homo sapiens) (UniProt O43318)
[38] = molecular target: Serine/threonine-protein kinase TAO1 (Homo sapiens) (UniProt Q7L7X3)
[39] = molecular target: Tyrosine-protein kinase receptor Tie-1 (Homo sapiens) (UniProt P35590)
Tyrosine-protein kinase receptor Tie-1 (Homo sapiens), sequence (P35590 whole entry): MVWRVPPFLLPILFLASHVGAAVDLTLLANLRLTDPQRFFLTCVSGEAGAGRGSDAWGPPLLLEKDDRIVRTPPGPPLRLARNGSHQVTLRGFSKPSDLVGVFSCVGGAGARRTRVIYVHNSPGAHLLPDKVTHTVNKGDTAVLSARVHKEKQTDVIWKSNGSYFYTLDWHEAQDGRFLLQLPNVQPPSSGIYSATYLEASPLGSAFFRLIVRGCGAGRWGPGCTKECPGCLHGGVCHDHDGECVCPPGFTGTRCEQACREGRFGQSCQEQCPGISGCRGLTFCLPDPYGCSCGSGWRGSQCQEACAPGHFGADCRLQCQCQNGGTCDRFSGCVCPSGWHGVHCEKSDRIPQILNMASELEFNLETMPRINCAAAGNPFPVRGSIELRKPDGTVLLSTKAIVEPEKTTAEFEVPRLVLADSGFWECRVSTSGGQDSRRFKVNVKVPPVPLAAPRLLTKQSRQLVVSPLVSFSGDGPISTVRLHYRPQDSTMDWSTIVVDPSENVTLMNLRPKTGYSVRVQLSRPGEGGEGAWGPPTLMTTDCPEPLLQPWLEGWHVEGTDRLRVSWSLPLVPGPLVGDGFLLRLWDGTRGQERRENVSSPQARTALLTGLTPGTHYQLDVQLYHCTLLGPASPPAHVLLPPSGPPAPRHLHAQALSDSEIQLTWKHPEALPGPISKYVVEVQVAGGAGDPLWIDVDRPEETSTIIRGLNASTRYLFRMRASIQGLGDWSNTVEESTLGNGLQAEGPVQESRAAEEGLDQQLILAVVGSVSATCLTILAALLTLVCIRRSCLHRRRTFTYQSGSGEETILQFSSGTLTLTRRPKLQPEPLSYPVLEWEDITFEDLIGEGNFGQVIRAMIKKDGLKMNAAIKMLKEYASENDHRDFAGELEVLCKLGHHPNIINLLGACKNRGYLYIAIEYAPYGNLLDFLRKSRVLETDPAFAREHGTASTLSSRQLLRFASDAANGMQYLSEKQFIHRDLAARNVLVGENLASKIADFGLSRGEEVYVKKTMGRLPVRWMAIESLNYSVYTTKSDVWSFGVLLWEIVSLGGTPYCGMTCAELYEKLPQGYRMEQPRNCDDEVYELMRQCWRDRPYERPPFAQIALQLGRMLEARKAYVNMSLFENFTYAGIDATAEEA

[40] = molecular target: Angiopoietin-1 receptor (Homo sapiens) (UniProt Q02763)
Angiopoietin-1 receptor (Homo sapiens), sequence (Q02763 whole entry): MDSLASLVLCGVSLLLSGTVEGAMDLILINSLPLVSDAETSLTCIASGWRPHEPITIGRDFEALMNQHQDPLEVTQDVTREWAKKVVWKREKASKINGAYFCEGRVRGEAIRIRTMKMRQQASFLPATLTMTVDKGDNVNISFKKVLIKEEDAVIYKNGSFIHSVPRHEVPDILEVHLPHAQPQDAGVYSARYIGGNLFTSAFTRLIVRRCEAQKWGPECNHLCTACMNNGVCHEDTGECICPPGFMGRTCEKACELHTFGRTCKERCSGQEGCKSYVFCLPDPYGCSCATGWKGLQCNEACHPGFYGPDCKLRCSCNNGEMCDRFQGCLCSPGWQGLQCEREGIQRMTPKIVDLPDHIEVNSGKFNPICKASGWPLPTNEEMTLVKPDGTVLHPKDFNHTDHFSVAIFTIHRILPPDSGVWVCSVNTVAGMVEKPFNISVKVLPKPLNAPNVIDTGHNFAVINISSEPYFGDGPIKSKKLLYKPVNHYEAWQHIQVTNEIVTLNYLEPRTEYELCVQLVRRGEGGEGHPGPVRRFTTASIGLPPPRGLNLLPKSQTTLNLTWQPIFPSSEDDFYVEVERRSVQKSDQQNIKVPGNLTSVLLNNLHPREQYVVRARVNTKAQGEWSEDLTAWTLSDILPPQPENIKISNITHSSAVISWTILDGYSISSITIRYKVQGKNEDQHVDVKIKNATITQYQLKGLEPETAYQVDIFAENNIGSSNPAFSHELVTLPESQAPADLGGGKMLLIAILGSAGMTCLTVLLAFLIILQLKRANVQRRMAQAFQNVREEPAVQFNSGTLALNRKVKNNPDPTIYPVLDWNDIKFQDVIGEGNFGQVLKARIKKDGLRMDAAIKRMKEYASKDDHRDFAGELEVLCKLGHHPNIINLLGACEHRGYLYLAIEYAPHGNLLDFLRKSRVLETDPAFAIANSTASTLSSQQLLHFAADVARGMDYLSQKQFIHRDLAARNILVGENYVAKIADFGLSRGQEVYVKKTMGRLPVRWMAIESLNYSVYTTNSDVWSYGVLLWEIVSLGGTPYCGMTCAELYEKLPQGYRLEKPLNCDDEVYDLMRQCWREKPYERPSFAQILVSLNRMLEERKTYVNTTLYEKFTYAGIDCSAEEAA

[41] = molecular target: Serine/threonine-protein kinase TNNI3K (Homo sapiens) (UniProt Q59H18)
[42] = molecular target: Non-receptor tyrosine-protein kinase TYK2 (Homo sapiens) (UniProt P29597)
[43] = molecular target: Serine/threonine-protein kinase ULK1 (Homo sapiens) (UniProt O75385)
[44] = molecular target: Serine/threonine-protein kinase 32B (Homo sapiens) (UniProt Q9NY57)
[45] = molecular target: Mitogen-activated protein kinase kinase kinase 20 (Homo sapiens) (UniProt Q9NYL2)

Measured: residual activity

Activin receptor type-1B (Homo sapiens), sequence (P36896 whole entry): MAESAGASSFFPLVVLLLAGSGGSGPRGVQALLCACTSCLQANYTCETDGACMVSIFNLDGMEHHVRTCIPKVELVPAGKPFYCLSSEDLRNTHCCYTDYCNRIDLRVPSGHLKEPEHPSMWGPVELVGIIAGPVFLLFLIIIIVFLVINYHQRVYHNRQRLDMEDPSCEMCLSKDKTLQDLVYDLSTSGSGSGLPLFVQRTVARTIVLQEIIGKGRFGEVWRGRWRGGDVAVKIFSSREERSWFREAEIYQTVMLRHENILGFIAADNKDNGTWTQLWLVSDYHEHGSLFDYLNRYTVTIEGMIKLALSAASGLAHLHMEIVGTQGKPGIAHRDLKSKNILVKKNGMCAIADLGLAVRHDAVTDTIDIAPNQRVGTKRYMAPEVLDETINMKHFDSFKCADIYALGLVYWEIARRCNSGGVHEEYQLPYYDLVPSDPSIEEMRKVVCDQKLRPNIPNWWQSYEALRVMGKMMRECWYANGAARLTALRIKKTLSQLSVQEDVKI

N#CC1(c2ccccn2)CCN(Cc2cc(C(=O)N3CCCC3)c(=O)n3ccccc23)CC1
inactive: [1] 100% | [2] 69% | [3] 74% | [4] 100% | [5] 100% | [6] 100% | [7] 82% | [8] 100% | [9] 76% | [10] 85% | [11] 88% | [12] 80% | [13] 100% | [14] 63% | [15] 92% | [16] 86% | [17] 100% | [18] 86% | [19] 78% | [20] 95% | [21] 95% | [22] 100% | [23] 100% | [24] 90% | [25] 83% | [26] 95% | [27] 80% | [28] 90% | [29] 63% | [30] 100% | [31] 77% | [32] 87% | [33] 100% | [34] 100% | [35] 98% | [36] 92% | [37] 99% | [38] 100% | [39] 98% | [40] 85% | [41] 89% | [42] 100% | [43] 91% | [44] 100% | [45] 95%

N#CC1(c2ccccn2)CCN(Cc2cc(C(=O)O)c(=O)n3ccccc23)CC1 [MSD-M1PAM]
inactive: [1] 100% | [2] 94% | [3] 100% | [4] 93% | [5] 100% | [6] 100% | [7] 58% | [8] 100% | [9] 91% | [10] 100% | [11] 100% | [12] 100% | [13] 100% | [14] 94% | [15] 100% | [16] 85% | [17] 97% | [18] 100% | [19] 100% | [20] 100% | [21] 100% | [22] 100% | [23] 100% | [24] 98% | [25] 85% | [26] 100% | [27] 100% | [28] 80% | [29] 89% | [30] 100% | [31] 100% | [32] 90% | [33] 100% | [34] 77% | [35] 100% | [36] 92% | [37] 90% | [38] 100% | [39] 100% | [40] 95% | [41] 100% | [42] 93% | [43] 76% | [44] 100% | [45] 100%
